# Laboratory results: paper PMC5004205, “Spiro[pyrrolidine-3, 3´-oxindole] as potent anti-breast cancer compounds: Their design, synthesis, biological evaluation and cellular target identification” (Scientific Reports, 2016)
# Columns and labels:
# MCF-7 cell lysate = assay: Chemical proteomics target deconvolution with polymer-immobilized 5l; format: binding, Human; settings: differential proteins common to three experiments, MS
# Description: 5l was provided as a lyophilized powder. A 100 mM stock of 5l was made in DMSO. The stock solution was diluted to 215 μM in 1 mM of phosphate buffer in pH 6.0 and incubated with the matrix for 16 hrs at room temperature. After incubation, the matrix was washed five times with Phosphate buffer. The amount of molecule in the phosphate buffer wash was quantified by HPLC-UV based method and amount of molecule retained on the matrix was calculated.
# Cell lysates were prepared in RIPA buffer and protein concentration was determined by Bradford method. Cell lysate was diluted with 1X TBS to a concentration of 1 mg/ml. The 5l immobilized matrix was incubated with 2 ml of cell lysate for 2 min with mild shaking. The matrix was washed with 1X TBS to remove unbound proteins and to reduce non-specific interactions. The molecule bound proteins were then recovered by acetone precipitation and was dissolved in 1X sample buffer. Proteins were separated on a 4–12% gradient gel and bands were digested by standard “in-gel” trypsin digestion methods. […]
# Agilent Mass Hunter software was used for data acquisition and analysis of Total ion chromatograms. […] The peptide sequence was also analysed for variable modifications such as methionine oxidation, acetylation, cysteine sulfoxide, deamidation and pyro glutamic acid modification.
# [1] = tested on: MCF-7 breast cancer cells; assay: MTT colorimetric cell viability assay, MCF-7; format: cell-based; settings: for CTRL-TST/CTRL*100 (inhibition) MCF-7: EC50 plate
# Description: MCF-7 cells were maintained as monolayer in 25 cm^2 culture flasks (T-25) at 37 °C in DMEM medium (GIBCO, St. Louis, USA) supplemented with high glucose, L-glutamine, pyridoxine hydrochloride, 110 mg/L sodium pyruvate, 3.7 g/L NaHCO3 and antibiotics (Penicillin-10,000 units/mL, Streptomycin −10,000 μg/mL, GIBCO, USA). Growth medium (pH 7.4) was prepared by adding 5% heat inactivated FBS (Fetal Bovine Serum, GIBCO, USA) and stored at 4 °C. The medium was changed 10–18 hrs prior to experiment, and cells were confluent at the time of experimentation. Cells were dislodged from flasks by gentle trypsinization containing 0.25% Trypsin. MCF-7 cells were regularly sub-cultured thrice a week in a seeding density of 40,000–50,000 cells/cm^2area. Cell confluency = 70%
# The MTT colorimetric viability assay was performed to evaluate the anticancer effect of compounds. 30,000 cells/100 μl of media were seeded per well and allowed to stretch and adhere overnight at 37 °C. Following day media was removed and 100 μl fresh media was added to the grown cells. […] There was one positive and one negative control along with 13 compounds. The results were measured all in triplicate in 45 wells of 96 well plate at each time point. Cytotoxic effect was evaluated using ability of live cells to cleave MTT ((3-[4, 5- dimethylthiazol-2-yl]-2, 5-diphenyl tetrazolium bromide)) (Sigma-Aldrich, St Louis, MO, USA), into formazan crystals. Post 48 hours of treatment, 10 μl of MTT (5 mg/ml in PBS) was added to the cells and incubated for 4 hours in dark at 37 °C. The violet colored crystals formed were then dissolved in 100 μl DMSO solvent (Dimethyl Sulfoxide, Sigma-Aldrich, St. Louis, MO, USA). The colorimetric assay was read by a MultiMode Plate Reader (Bio-Rad) at 595 nm. Percentage of Inhibition of drug was calculated by following formula:
# O.D1 O.D2 O.D3 AVG CTRL-TST CTRL-TST/CTRL*100 stdev
# MCF-7 cells = assay: Annexin V/propidium iodide FACS assay; format: cell-based
# Description: The assay is based on the ability of the protein annexin V to bind to phosphatidylserine (PS) exposed on the outer membrane leaflet in apoptotic cells (PS also appears on the necrotic cell surface). The annexin V assay was performed following the manufacturer’s instructions (Annexin V-FITC kit,Alexa Fluor). Briefly, the cells were washed with PBS and suspended in pre-diluted binding buffer. The cell density was adjusted to 2 million and 195 μl of cell suspension were mixed with 5 μl Annexin V-FITC and incubated for 10 min in the dark at room temperature. The cells were washed with binding buffer, re-suspended in 195 μl binding buffer, counterstained with 10 μl of the 20 μg/ml propidium iodide stock (final concentration 1 μg/ml) and the data were acquired by BD FACS diva 7.0 at 6 h, 12 h and 24 h.
smiles,measurement,setting,value
O=C1Nc2ccccc2C12CCNC2c1ccccc1 (stereo not drawn) [Compound 5l],Putative cellular binding targets,MCF-7 cell lysate,HDAC2 and Prohibitin 2 are considered top priority targets
same,CTRL-TST/CTRL*100 (inhibition) MCF-7,[1]; concentration row 10,24.36
same,CTRL-TST/CTRL*100 (inhibition) MCF-7,[1]; concentration row 20,33.4492
same,CTRL-TST/CTRL*100 (inhibition) MCF-7,[1]; concentration row 30,48.26
same,CTRL-TST/CTRL*100 (inhibition) MCF-7,[1]; concentration row 40,62.51
same,CTRL-TST/CTRL*100 (inhibition) MCF-7,[1]; concentration row 50,66.98
same,EC50,"[1]; Homo sapiens, MCF7, MTT, mean of three experiments",3.5 µM
same,inhibition at 50 µM,"[1]; Homo sapiens, MCF7, 50 μM, 48 hours, MTT, triplicates, read-out: Percentage inhibition MCF-7",60.96 ± 0.09%
same,Mode of cell death by Annexin-PI FACS,MCF-7 cells,necrosis was also confirmed
